Source: ChEMBL document CHEMBL3871268, “Chalcogen containing heterocyclic scaffolds: New hybrids with antitumoral activity” (Eur J Med Chem, 2016)

Assays:
[1] = Cell cycle analysis in human MCF7 cells assessed as accumulation at SubG1 phase at 50 uM by propidium iodide staining-based flow cytometry; format: functional; settings: TDE = time-dependent effect
[2] = Cell cycle analysis in human MCF7 cells assessed as accumulation at S phase at 50 uM measured after 24 hrs by propidium iodide staining-based flow cytometry (reference value: 13.2%); format: functional
[3] = Cell cycle analysis in human MCF7 cells assessed as accumulation at G0/G1 phase at 50 uM measured after 16 hrs by propidium iodide staining-based flow cytometry (reference value: 72.1%); format: functional
[4] = Cell cycle analysis in human MCF7 cells assessed as accumulation at S phase at 50 uM measured after 4 hrs by propidium iodide staining-based flow cytometry (reference value: 13.2%); format: functional
[5] = Cell cycle arrest in human MCF7 cells assessed as sub-diploid cells at 50 uM measured after 48 hrs by propidium iodide staining-based flow cytometry (reference value: 1.9%); format: functional
[6] = Cell cycle analysis in human MCF7 cells assessed as accumulation at S phase at 50 uM measured after 16 hrs by propidium iodide staining-based flow cytometry (reference value: 13.2%); format: functional
[7] = Cell cycle analysis in human MCF7 cells assessed as accumulation at SubG1 phase at 50 uM measured after 4 hrs by propidium iodide staining-based flow cytometry (reference value: 5.6%); format: functional
[8] = Cell cycle analysis in human MCF7 cells assessed as accumulation at G0/G1 phase at 50 uM measured after 24 hrs by propidium iodide staining-based flow cytometry (reference value: 72.1%); format: functional
[9] = Cytotoxicity against human 184B5 cells assessed as reduction in cell viability measured after 72 hrs by MTT assay; format: toxicity, cell-based
[10] = Cell cycle arrest in human MCF7 cells assessed as sub-diploid cells at 50 uM pretreated with pan-caspase inhibitor Z-VAD-FMK for 1 hr followed by compound addition measured after 48 hrs by propidium iodide staining-based flow cytometry assay (reference value: 1.9%); format: functional; parameters: scale not given: the % may be the effect or the level left
[11] = Cell cycle analysis in human MCF7 cells assessed as accumulation at G0/G1 phase at 50 uM measured after 8 hrs by propidium iodide staining-based flow cytometry (reference value: 72.1%); format: functional
[12] = Cytotoxicity against human MCF7 cells assessed as reduction in cell viability measured after 72 hrs by MTT assay; format: functional; settings: MCF7, 72 h
[13] = Cytotoxicity against human PC3 cells assessed as reduction in cell viability measured after 72 hrs by MTT assay; format: functional; settings: PC-3, 72 h
[14] = Cell cycle analysis in human MCF7 cells assessed as accumulation at G2/M phase at 50 uM measured after 16 hrs by propidium iodide staining-based flow cytometry (reference value: 8.5%); format: functional
[15] = Cell cycle analysis in human MCF7 cells assessed as accumulation at G0/G1 phase at 50 uM measured after 48 hrs by propidium iodide staining-based flow cytometry (reference value: 72.1%); format: functional
[16] = Cell cycle analysis in human MCF7 cells assessed as accumulation at G2/M phase at 50 uM measured after 4 hrs by propidium iodide staining-based flow cytometry (reference value: 8.5%); format: functional
[17] = Cell cycle analysis in human MCF7 cells assessed as accumulation at S phase at 50 uM measured after 8 hrs by propidium iodide staining-based flow cytometry (reference value: 13.2%); format: functional
[18] = Cell cycle analysis in human MCF7 cells assessed as accumulation at G2/M phase at 50 uM measured after 48 hrs by propidium iodide staining-based flow cytometry (reference value: 8.5%); format: functional
[19] = Cell cycle analysis in human MCF7 cells assessed as accumulation at SubG1 phase at 50 uM measured after 48 hrs by propidium iodide staining-based flow cytometry (reference value: 5.6%); format: functional
[20] = Cell cycle arrest in human MCF7 cells assessed as M1 quadrant cells at 50 uM pretreated with autophagy inhibitor wortmannin for 1 hr followed by compound addition measured after 48 hrs by propidium iodide staining-based flow cytometry assay (reference value: 98.1%); format: functional; parameters: scale not given: the % may be the effect or the level left
[21] = Cell cycle arrest in human MCF7 cells assessed as sub-diploid cells at 50 uM pretreated with autophagy inhibitor wortmannin for 1 hr followed by compound addition measured after 48 hrs by propidium iodide staining-based flow cytometry assay (reference value: 1.9%); format: functional; parameters: scale not given: the % may be the effect or the level left
[22] = Cell cycle analysis in human MCF7 cells assessed as accumulation at S phase at 50 uM measured after 48 hrs by propidium iodide staining-based flow cytometry (reference value: 13.2%); format: functional
[23] = Cell cycle analysis in human MCF7 cells assessed as accumulation at G2/M phase at 50 uM measured after 8 hrs by propidium iodide staining-based flow cytometry (reference value: 8.5%); format: functional
[24] = Cell cycle arrest in human MCF7 cells assessed as M1 quadrant cells at 50 uM pretreated with pan-caspase inhibitor Z-VAD-FMK for 1 hr followed by compound addition measured after 48 hrs by propidium iodide staining-based flow cytometry assay (reference value: 98.1%); format: functional; parameters: scale not given: the % may be the effect or the level left
[25] = Cell cycle analysis in human MCF7 cells assessed as accumulation at SubG1 phase at 50 uM measured after 8 hrs by propidium iodide staining-based flow cytometry (reference value: 5.6%); format: functional
MCF7 = test: Selectivity index, ratio of GI50 for human 184B5 cells to GI50 for human MCF7 cells; format: functional
[26] = Cell cycle analysis in human MCF7 cells assessed as accumulation at SubG1 phase at 50 uM measured after 24 hrs by propidium iodide staining-based flow cytometry (reference value: 5.6%); format: functional
[27] = Cell cycle arrest in human MCF7 cells assessed as M1 quadrant cells at 50 uM measured after 48 hrs by propidium iodide staining-based flow cytometry (reference value: 98.1%); format: functional
[28] = Cell cycle analysis in human MCF7 cells assessed as accumulation at SubG1 phase at 50 uM measured after 16 hrs by propidium iodide staining-based flow cytometry (reference value: 5.6%); format: functional
[29] = Cell cycle analysis in human MCF7 cells assessed as accumulation at G0/G1 phase at 50 uM measured after 4 hrs by propidium iodide staining-based flow cytometry (reference value: 72.1%); format: functional
[30] = Cell cycle analysis in human MCF7 cells assessed as accumulation at G2/M phase at 50 uM measured after 24 hrs by propidium iodide staining-based flow cytometry (reference value: 8.5%); format: functional

## N#C[Se]Cc1ccc(-n2cccc2)cc1
[1]
  Activity: Tde
[2]
  Activity: 17.2%
[3]
  Activity: 53.7%
[4]
  Activity: 19.3%
[5]
  Activity: 32.2%
[6]
  Activity: 17.6%
[7]
  Activity: 2.2%
[8]
  Activity: 55.7%
[9]; 184B5 cells
  GI50 at 72 h: > 100 µM
[9]; 184b5, 72 h
  LC50: > 100 µM
  TGI: > 100 µM
[10]
  Activity: 18.2%
[11]
  Activity: 61.4%
[12]
  GI50: 2.4 µM
  LC50: > 100 µM
  TGI: > 100 µM
[13]
  GI50: 59.9 µM
  LC50 (concentration lethal to 50% of cells): > 100 µM
  TGI: > 100 µM
[14]
  Activity: 17.2%
[15]
  Activity: 53.6%
[16]
  Activity: 18.7%
[17]
  Activity: 17.8%
[18]
  Activity: 10.3%
[19]
  Activity: 25.2%
[20]
  Activity: 69.2%
[21]
  Activity: 30.8%
[22]
  Activity: 9.1%
[23]
  Activity: 18.4%
[24]
  Activity: 81.7%
[25]
  Activity: 2.9%
MCF7
  RatioGI50: >41.8
[26]
  Activity: 13.1%
[27]
  Activity: 67.8%
[28]
  Activity: 9.4%
[29]
  Activity: 59.6%
[30]
  Activity: 14%
